Results: US20250161338A1, “Compounds for Anti-aging Intervention” (AGENCY FOR SCIENCE, TECHNOLOGY AND RESEARCH, priority 2022, published 2025)
Where a name gives a salt, the structure may show the parent alone.

Columns and labels:
[1] = system: prototrophic yeast strain (CEN.PK113-7D); assay: Propidium iodide fluorescence-based CLS method in yeast (incl. high-throughput screening); format: cell-based, Saccharomyces cerevisiae; details: for Yeast CLS increase: Yes/No call of the screen;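 on PI intensity: untreated reference is eight DMSO and water control wells per plate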
In short: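 CEN.PK113-7D aged in SD medium at 30 °C with compounds (rapamycin 0–10 nM; sugars 0–8 mM; screen at single concentrations). At each age point cells were stained with 5 μg/mL PI for 15 min; fluorescence was normalized to OD600, background-subtracted, and survival scaled against boiled-cell control.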

[2] = system: prototrophic yeast strain (CEN.PK113-7D); assay: Yeast outgrowth in YPD liquid medium (CLS of aged cells); format: cell-based, Saccharomyces cerevisiae; details: age point day 14
In short: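 Cultures aged at 30 °C in SD medium with double-diluted rapamycin (0–10 nM) or sugars/polyols (0–8 mM). On day 14, 3 µL of culture was transferred into 200 µL YPD and outgrowth read as OD600. Survival expressed relative to day 1 outgrowth (100%).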

[3] = concentration tested 100 μM, solvent DMSO or water, chronological age point Day 7 (72 h growth = Day 1), lower = more survival
[4] = concentration tested 100 μM, OD600 nm after 24 h in YPD at 30° C.
[5] = concentration tested 30 μg/mL, solvent water, age point Day 7
[6] = concentration tested 30 μg/mL, OD600 nm after 24 h in YPD

Compound | Yeast CLS increase ([1]; concentration tested 100 μM) | PI intensity [1, 3] | Outgrowth [2, 4] | Yeast CLS increase ([1]; concentration tested 30 μg/mL) | PI intensity [1, 5] | Outgrowth [2, 6]
CC(C)(O)CCc1c(O)cc(O)c2c(=O)c(O)c(-c3ccc(O)cc3)oc12 [Noricaritin] | No | 77,179.8 | 0.1 |  |  | 
Cn1cc(C(N)=O)ccc1=O [Nudifloramide] | No | 65,023.3 | 0.1 |  |  | 
CCCCCCCCCCCCCCC(=O)O [Pentadecanoic acid] | No | 75,173.9 | 0.1 |  |  | 
CC(O)Cn1cnc2c1c(=O)n(C)c(=O)n2C (stereo not drawn) [Proxyphylline, reference compound] | No | 72,232.1 | 0.1 |  |  | 
c1ncc2[nH]cnc2n1 [Purine] | No | 53,185.1 | 0.1 |  |  | 
Cl.Cl.[O-][S+]1c2ccccc2N=C(N2CCN(CCOCCO)CC2)c2ccccc21 (stereo not drawn) [Quetiapine sulfoxide (dihydrochloride)] | No | 68,761.6 | 0.1 |  |  | 
C=C[C@H]1C[N@@]2CC[C@H]1C[C@H]2[C@H](O)c1ccnc2ccc(OC)cc12 [Quinine (hydrochloride dihydrate), reference compound] | No |  | 0.1 |  |  | 
CO[C@H]1C[C@@H]2CC[C@@H](C)[C@@](O)(O2)C(=O)C(=O)N2CCCC[C@H]2C(=O)O[C@H]([C@H](C)C[C@@H]2CC[C@@H](O)[C@H](OC)C2)CC(=O)[C@H](C)/C=C(\C)[C@@H](O)[C@@H](OC)C(=O)[C@H](C)C[C@H](C)/C=C/C=C/C=C/1C [Rapamycin, reference compound] |  | 21,460.5 | 1.3 |  |  | 
CC1=C(/C=C/C(C)=C/C=C/C(C)=C/C(=O)O)C(C)(C)CCC1 [Retinoic acid, reference compound] |  | 85,242.6 | 0.1 |  |  | 
CC[C@H]1CN2CC[C@]3(C(=O)Nc4ccccc43)[C@@H]2C[C@@H]1/C(=C\OC)C(=O)OC [Rhynchophylline] | No | 55,562.5 | 0.1 |  |  | 
CO[C@H]1/C=C/O[C@@]2(C)Oc3c(C)c([O-])c4c(O)c(cc(O)c4c3C2=O)NC(=O)/C(C)=C\C=C\[C@H](C)[C@H](O)[C@@H](C)[C@@H](O)[C@@H](C)[C@H](OC(C)=O)[C@@H]1C.[Na+] [Rifamycin (sodium), reference compound] | Yes | 39,446.0 | 0.6 |  |  | 
C[C@H]1CNCCCN1S(=O)(=O)c1cccc2cncc(F)c12 [Ripasudil, reference compound] | No | 77,962.0 | 0.1 |  |  | 
O=C(O)/C=C/CCCCCCCO [Royal Jelly acid] | No | 65,406.1 | 0.1 |  |  | 
CC[C@@]1(O)C(=O)OCc2c1cc1n(c2=O)Cc2cc3c([N+](=O)[O-])cccc3nc2-1 [Rubitecan] | No | 57,075.3 | 0.1 |  |  | 
COc1cc2c(c(OC)c1OC)-c1c(cc3c(c1OC)OCO3)C[C@H](C)[C@@](C)(O)C2 [Schisandrol B] | No | 80,051.7 | 0.1 |  |  | 
C[Se]CC[C@H](N)C(=O)O [Selenomethionine] | Yes | 29,837.8 | 1.2 |  |  | 
CN[C@@H]1C[C@H]2O[C@@](C)([C@@H]1OC)n1c3ccccc3c3c4c(c5c6ccccc6n2c5c31)C(=O)NC4 [Staurosporine] | No | 67,250.9 | 0.1 |  |  | 
C[C@H](Cn1cnc2c(N)ncnc21)OCP(=O)(O)O.O [Tenofovir (hydrate), reference compound] | No | 76,065.0 | 0.1 |  |  | 
CC(C)N1CCN(c2ccc(OCC3COC(Cn4cncn4)(c4ccc(Cl)cc4Cl)O3)cc2)CC1 (stereo not drawn) [Terconazole, reference compound] | No | 72,350.0 | 0.1 |  |  | 
Cc1nc(C)c(C)nc1C [Tetramethylpyrazine] | No | 62,003.6 | 0.1 |  |  | 
Cc1ccc(C(C)C)c(O)c1 [Thymol] | No | 61,503.8 | 0.1 |  |  | 
O=C(O)CCCCCCCCCCCC(=O)O [Tridecanedioic acid] | No | 80,407.7 | 0.1 |  |  | 

Compound | Yeast CLS increase ([1]; concentration tested 100 μM) | PI intensity [1, 3] | Outgrowth [2, 4] | Yeast CLS increase ([1]; concentration tested 30 μg/mL) | PI intensity [1, 5] | Outgrowth [2, 6]
O=c1ccn([C@@H]2O[C@H](CO)[C@@H](O)[C@H]2O)c(=O)[nH]1 [Uridine] | No | 84,894.9 | 0.1 |  |  | 
O[C@H]([C@H](O)[C@@H]1CO1)[C@H]1CO1 [VAL-083] | No | 63,325.5 | 0.1 |  |  | 
COc1cc(C(=O)O)ccc1O [Vanillic acid] | No | 64,546.4 | 0.1 |  |  | 
COc1cc(O)c(C(C)=O)c(OC)c1 [Xanthoxylin] | No | 70,352.1 | 0.1 |  |  | 
CCCCC[C@H](O)CC(=O)CCc1ccc(O)c(OC)c1 [[6]-Gingerol] | No | 61,395.3 | 0.1 |  |  | 
N#CCCN [β-Aminopropionitrile] | No | 65,865.6 | 0.1 |  |  | 
CC(=O)O[C@H]1CC[C@H]2[C@@H]3CCc4cc(O)ccc4[C@H]3CC[C@]12C [β-Estradiol 17-acetate] | Yes | 34,621.0 | 0.5 |  |  | 
CC1(C)CCC2=C(O1)c1ccccc1C(=O)C2=O [β-Lapachone] | No | 67,892.9 | 0.1 |  |  | 
Amarogentin | No | 70,083.5 | 0.1 |  |  | 
Aprotinin | No | 70,144.6 | 0.1 |  |  | 
Catechin | No | 63,589.5 | 0.1 |  |  | 
Chondroitin (sulfate) |  |  |  | No | 75,572.6 | 0.1
Cisatracurium (besylate) [reference compound] | No | 75,862.3 | 0.1 |  |  | 
Escin | No | 70,495.1 | 0.1 |  |  | 
Estramustine (phosphate sodium) [reference compound] | No | 77,514.0 | 0.2 |  |  | 
Estrone sulfate (potassium) | No | 54,751.8 | 0.1 |  |  | 
Gentamicin (sulfate) [reference compound] |  |  |  | No | 73,296.2 | 0.1
Gramicidin [reference compound] | No | 79,922.3 | 0.1 |  |  | 
Heparin (Lithium salt) [reference compound] |  |  |  | No | 77,829.1 | 0.1
Heparin (sodium salt) (MW 15 kDa) [reference compound] |  |  |  | No | 64,969.0 | 0.1
Hyaluronidase |  |  |  | No | 78,406.7 | 0.1
